# What was measured:
# [1] = target: T1, Lysine-specific demethylase 4C (Homo sapiens, UniProt Q9H3R0); experiment: Inhibition of KDM4C (unknown origin) measured by AlphaScreen assay
# T1 sequence (Q9H3R0 whole entry): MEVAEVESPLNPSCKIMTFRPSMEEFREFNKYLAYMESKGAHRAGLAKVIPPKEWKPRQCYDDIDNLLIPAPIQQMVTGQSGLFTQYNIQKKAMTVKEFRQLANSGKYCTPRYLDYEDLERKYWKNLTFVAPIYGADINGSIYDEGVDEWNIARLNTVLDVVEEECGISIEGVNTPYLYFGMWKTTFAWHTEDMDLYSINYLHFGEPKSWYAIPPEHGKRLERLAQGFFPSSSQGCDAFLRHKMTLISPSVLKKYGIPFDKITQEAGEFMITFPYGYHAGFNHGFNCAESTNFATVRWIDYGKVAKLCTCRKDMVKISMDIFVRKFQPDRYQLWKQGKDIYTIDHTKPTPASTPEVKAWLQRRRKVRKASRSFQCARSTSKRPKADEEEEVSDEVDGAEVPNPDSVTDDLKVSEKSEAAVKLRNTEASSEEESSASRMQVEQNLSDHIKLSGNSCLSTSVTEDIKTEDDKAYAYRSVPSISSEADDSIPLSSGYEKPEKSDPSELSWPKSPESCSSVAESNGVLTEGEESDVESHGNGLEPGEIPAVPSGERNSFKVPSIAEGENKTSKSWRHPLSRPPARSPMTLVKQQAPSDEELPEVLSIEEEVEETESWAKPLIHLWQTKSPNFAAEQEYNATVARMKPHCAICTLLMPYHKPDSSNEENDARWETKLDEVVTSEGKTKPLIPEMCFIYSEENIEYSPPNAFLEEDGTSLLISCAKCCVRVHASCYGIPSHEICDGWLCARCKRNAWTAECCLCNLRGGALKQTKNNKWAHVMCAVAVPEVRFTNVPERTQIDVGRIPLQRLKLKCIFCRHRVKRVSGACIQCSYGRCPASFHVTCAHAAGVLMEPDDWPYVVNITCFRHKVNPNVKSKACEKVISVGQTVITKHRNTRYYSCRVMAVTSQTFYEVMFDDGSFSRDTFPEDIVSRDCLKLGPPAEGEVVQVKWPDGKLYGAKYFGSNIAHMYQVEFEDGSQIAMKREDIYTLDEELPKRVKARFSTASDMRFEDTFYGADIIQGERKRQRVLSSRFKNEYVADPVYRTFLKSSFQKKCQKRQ
# [2] = target: T2, Lysine-specific demethylase 4B (Homo sapiens, UniProt O94953); experiment: Inhibition of KDM4B (unknown origin) measured by AlphaScreen assay
# T2 sequence (O94953 whole entry): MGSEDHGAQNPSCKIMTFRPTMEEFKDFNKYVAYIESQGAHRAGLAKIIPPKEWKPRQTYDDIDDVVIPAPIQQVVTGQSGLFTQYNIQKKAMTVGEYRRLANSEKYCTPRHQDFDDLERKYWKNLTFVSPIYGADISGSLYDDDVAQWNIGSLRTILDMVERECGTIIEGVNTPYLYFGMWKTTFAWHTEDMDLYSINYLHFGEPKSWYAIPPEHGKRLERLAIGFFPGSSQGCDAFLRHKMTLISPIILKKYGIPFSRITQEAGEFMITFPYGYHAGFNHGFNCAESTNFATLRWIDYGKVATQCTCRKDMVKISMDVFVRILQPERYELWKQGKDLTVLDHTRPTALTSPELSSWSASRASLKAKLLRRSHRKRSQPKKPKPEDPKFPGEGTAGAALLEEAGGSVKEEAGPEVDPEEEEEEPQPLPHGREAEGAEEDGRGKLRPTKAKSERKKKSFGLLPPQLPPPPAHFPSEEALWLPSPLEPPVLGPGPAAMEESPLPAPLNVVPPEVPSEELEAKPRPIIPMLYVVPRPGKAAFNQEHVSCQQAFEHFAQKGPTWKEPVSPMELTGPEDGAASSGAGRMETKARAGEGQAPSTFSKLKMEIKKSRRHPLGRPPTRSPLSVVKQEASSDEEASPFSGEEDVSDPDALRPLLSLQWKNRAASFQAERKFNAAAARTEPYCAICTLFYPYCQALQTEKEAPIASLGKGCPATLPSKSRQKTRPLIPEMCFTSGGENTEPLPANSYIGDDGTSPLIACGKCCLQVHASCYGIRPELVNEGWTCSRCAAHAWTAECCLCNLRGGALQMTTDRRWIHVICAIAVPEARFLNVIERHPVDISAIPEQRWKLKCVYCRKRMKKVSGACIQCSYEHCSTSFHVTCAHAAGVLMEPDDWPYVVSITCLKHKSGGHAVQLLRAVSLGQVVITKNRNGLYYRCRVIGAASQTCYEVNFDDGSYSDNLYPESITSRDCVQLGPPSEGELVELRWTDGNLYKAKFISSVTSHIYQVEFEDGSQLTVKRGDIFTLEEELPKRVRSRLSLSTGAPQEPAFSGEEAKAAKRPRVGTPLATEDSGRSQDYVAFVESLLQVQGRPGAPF
# [3] = target: Lysine-specific demethylase 5A (Homo sapiens, UniProt P29375); experiment: Inhibition of KDM5A (unknown origin) measured by AlphaScreen assay
# Sequence of Lysine-specific demethylase 5A (P29375 whole entry): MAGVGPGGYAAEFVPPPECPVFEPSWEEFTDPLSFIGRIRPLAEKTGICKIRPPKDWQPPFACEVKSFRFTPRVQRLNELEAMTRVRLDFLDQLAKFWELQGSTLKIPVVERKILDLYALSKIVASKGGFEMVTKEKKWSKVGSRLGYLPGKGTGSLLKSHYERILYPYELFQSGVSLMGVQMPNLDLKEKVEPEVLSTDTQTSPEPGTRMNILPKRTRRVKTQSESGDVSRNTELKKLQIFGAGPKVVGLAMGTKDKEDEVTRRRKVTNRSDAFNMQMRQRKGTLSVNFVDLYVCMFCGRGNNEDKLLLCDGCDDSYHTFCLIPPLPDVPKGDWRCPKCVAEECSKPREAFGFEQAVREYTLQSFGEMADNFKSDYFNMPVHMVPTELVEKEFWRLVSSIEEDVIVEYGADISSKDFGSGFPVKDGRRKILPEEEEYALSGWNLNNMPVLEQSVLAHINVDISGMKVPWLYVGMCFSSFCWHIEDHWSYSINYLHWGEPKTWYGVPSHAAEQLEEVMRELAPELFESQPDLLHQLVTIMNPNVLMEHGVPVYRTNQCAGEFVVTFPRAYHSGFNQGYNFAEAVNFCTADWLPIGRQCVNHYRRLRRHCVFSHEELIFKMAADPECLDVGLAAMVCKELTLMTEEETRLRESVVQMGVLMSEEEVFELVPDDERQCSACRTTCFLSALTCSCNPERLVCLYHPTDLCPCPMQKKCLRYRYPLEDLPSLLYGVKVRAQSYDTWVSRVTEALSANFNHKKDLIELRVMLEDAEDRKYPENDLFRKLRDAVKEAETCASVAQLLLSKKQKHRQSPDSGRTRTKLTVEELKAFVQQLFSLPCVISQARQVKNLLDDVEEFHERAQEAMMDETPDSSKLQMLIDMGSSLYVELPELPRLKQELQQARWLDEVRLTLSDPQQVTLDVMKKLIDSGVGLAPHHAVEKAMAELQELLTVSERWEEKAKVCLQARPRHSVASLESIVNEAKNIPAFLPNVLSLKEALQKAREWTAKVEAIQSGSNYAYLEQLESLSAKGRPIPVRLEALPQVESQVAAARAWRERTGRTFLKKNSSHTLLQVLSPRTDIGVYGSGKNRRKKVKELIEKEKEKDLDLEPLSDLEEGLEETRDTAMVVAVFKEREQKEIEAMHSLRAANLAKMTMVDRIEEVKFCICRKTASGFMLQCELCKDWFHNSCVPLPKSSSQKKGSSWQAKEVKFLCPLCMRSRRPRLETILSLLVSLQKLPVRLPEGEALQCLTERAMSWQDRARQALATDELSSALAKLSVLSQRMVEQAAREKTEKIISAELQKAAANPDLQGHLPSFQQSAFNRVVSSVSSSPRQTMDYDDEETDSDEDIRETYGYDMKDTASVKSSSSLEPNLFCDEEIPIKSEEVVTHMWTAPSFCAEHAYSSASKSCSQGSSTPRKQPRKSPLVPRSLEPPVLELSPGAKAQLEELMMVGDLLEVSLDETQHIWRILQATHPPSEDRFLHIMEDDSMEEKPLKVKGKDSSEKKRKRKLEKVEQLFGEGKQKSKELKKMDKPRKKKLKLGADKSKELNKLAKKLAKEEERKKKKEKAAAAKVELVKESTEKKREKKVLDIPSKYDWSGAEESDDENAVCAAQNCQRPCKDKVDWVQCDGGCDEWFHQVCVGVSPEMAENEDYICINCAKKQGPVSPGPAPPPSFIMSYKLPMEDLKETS
# [4] = target: Lysine-specific demethylase 6B (Homo sapiens, UniProt O15054); experiment: Inhibition of KDM6B (unknown origin) measured by AlphaScreen assay
# Sequence of Lysine-specific demethylase 6B (O15054 whole entry): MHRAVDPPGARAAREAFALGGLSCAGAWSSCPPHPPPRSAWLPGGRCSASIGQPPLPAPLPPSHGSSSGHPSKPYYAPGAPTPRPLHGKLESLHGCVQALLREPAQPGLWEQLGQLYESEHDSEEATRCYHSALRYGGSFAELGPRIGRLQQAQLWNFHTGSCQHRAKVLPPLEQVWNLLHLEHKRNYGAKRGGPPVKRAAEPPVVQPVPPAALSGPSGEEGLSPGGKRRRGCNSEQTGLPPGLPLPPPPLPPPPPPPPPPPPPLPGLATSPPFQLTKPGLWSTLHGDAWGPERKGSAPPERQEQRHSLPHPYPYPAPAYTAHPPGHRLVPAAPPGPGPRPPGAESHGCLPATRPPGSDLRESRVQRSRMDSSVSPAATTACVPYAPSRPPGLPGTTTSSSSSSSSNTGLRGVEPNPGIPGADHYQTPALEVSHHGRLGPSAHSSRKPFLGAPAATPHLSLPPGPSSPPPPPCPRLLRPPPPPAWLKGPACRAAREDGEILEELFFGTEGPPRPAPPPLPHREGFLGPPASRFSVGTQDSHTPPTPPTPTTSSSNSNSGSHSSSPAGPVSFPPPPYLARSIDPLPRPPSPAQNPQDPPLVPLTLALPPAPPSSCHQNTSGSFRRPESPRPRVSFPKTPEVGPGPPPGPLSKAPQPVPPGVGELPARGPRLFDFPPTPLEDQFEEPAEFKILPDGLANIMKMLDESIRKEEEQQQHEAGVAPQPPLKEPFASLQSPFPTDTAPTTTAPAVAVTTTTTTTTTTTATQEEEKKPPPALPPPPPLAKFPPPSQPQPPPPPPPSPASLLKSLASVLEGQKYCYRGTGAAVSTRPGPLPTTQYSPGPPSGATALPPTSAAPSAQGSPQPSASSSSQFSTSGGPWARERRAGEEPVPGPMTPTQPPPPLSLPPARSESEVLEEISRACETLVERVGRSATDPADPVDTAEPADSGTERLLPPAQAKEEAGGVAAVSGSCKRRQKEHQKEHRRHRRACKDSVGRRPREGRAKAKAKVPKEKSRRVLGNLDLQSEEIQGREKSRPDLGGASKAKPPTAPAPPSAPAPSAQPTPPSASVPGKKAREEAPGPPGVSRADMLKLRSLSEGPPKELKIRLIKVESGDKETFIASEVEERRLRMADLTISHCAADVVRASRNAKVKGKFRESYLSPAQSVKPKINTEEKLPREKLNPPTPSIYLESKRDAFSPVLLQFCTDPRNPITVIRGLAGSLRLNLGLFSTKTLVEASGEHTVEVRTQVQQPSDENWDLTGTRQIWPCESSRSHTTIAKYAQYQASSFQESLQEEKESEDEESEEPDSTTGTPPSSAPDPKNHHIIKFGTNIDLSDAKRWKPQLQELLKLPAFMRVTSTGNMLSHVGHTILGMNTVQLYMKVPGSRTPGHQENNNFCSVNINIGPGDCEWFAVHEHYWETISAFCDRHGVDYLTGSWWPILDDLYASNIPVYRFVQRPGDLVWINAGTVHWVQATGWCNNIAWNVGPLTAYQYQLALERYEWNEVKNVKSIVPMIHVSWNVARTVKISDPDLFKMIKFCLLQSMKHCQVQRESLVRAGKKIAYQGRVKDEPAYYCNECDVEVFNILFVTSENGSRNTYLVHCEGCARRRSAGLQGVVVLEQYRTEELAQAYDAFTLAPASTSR
# [5] = target: T2, Lysine-specific demethylase 4B; experiment: Inhibition of KDM4B (unknown origin) using H3K9me3 as substrate and measured by LANCE TR-FRET assay
# [6] = target: T3, Lysine-specific demethylase 4D (Homo sapiens, UniProt Q6B0I6); experiment: Inhibition of KDM4D (unknown origin) using H3K9me3 as substrate and measured by LANCE TR-FRET assay
# T3 sequence (Q6B0I6 whole entry): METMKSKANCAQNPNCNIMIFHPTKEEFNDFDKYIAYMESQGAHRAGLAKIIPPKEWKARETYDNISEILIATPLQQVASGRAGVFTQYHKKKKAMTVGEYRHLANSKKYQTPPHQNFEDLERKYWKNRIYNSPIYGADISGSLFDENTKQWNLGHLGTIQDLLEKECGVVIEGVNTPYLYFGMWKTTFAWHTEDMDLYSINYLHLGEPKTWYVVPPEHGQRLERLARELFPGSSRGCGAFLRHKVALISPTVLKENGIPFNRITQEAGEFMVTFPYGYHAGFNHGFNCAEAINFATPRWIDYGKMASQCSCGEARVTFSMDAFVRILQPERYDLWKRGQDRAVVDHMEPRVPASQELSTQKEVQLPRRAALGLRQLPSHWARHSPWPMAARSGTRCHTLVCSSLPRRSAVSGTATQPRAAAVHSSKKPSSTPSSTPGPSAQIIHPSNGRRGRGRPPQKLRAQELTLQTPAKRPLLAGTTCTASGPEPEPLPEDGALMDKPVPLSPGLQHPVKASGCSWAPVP
# [7] = target: T4, Lysine-specific demethylase 4A (Homo sapiens, UniProt O75164); experiment: Inhibition of KDM4A (unknown origin) using H3K9me3 as substrate and measured by LANCE TR-FRET assay
# T4 sequence (O75164 whole entry): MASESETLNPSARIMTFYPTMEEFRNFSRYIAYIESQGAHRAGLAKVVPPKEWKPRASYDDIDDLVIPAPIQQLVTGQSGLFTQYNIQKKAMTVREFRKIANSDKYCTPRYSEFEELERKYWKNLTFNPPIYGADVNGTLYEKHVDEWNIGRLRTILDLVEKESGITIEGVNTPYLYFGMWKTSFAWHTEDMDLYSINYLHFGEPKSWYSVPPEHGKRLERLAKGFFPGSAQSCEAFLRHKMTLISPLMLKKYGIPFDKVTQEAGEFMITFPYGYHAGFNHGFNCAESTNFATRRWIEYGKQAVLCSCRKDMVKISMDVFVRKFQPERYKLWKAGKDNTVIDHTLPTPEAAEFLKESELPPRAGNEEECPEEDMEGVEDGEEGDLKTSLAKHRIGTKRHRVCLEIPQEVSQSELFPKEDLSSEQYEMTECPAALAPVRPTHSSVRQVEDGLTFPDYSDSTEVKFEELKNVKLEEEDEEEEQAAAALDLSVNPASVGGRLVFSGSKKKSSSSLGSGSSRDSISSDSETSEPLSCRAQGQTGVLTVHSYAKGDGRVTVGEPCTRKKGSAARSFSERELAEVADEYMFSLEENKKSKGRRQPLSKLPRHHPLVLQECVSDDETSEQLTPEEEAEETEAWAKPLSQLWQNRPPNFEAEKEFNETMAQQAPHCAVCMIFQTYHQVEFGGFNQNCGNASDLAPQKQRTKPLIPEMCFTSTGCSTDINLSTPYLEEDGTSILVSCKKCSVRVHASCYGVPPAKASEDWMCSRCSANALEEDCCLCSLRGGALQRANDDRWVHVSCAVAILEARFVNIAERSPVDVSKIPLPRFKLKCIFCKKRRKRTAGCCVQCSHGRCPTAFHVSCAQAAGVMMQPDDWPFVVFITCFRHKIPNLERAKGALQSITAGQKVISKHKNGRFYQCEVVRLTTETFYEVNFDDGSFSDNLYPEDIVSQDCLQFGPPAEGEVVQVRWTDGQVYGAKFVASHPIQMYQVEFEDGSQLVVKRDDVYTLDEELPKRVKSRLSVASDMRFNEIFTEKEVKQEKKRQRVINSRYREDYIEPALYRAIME
# [8] = target: T4, Lysine-specific demethylase 4A; experiment: Inhibition of human KDM4A (1 to 350 residues) measured by ELISA assay
# [9] = target: T2, Lysine-specific demethylase 4B; experiment: Inhibition of KDM4B (unknown origin) measured by ELISA assay
# [10] = target: T1, Lysine-specific demethylase 4C; experiment: Inhibition of N-terminal GST-tagged human KDM4C (2 to 372 residues) expressed in baculovirus-infected Sf9 cells measured by high-throughput mass spectrometry assay
# [11] = target: T5, Lysine-specific demethylase 4E (Homo sapiens, UniProt B2RXH2)
# T5 sequence (B2RXH2 whole entry): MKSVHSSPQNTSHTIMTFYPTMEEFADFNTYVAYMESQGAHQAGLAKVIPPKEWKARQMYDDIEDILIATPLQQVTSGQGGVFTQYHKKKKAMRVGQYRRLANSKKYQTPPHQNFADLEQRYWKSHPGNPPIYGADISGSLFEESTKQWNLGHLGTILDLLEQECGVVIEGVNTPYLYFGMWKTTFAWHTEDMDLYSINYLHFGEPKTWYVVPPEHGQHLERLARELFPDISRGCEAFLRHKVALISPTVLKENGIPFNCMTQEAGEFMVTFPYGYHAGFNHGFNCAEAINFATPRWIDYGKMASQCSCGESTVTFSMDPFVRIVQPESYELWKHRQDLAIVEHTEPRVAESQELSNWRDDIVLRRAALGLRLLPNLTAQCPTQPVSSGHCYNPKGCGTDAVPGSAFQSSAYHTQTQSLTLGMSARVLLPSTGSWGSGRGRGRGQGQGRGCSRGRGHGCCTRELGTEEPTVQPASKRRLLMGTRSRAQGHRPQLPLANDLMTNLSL
# [12] = target: T4, Lysine-specific demethylase 4A; experiment: Inhibition of recombinant HQ5-Halo-tagged KDM4A tudor domain (unknown origin) measured by fluorescence polarization assay
# [13] = Inhibition of KDM4 in human MCF7 cells assessed as induction of H3K9me3 accumulation measured by immunostaining method; type: cell-based
# KYSE-150 cell line = experiment: Growth inhibition of human KYSE-150 cells measured after 48 hrs; type: functional
# [14] = Inhibition of KDM4 in human KYSE-150 cells assessed as induction of H3K9me3 accumulation measured by immunostaining method; type: cell-based, KYSE-150 cell line
# [15] = target: T1, Lysine-specific demethylase 4C; experiment: Inhibition of KDM4C (unknown origin) using H3K9me3 as substrate and measured by antibody-based assay
# [16] = Lipophilicity, logD of compound at pH 7.4 by Chromatography; type: physicochemical; conditions: buffer
# [17] = Inhibition of KDM4 (unknown origin) measured by ESI-TOF MS assay; set-up: species or system Homo sapiens
# [18] = target: T2, Lysine-specific demethylase 4B; experiment: Inhibition of GST-tagged KDM4B (unknown origin) using H3K9(me3)-biotin peptide as substrate incubated for 30 mins and measured after 15 mins by TR-FRET assay
# [19] = Antiproliferative activity against human neuroblastoma cells after 3 days by PrestoBlue assay; type: functional, cell-based; conditions: Neuroblastoma cell, 72 h
# [20] = target: T1, Lysine-specific demethylase 4C; experiment: Inhibition of KDM4C (unknown origin) using H3K9me3 as substrate and measured by LANCE TR-FRET assay
structure (smiles),measurement,setting,value
CO[C@H]1/C=C\C=C(/C)C(=O)NC2=CC(=O)C(NCCN(C)C)=C(C[C@@H](C)C[C@H](OC)[C@H](O)[C@@H](C)/C=C(\C)[C@@H]1OC(N)=O)C2=O (stereo in doubt) [ALVESPIMYCIN],IC50,[1],700 nM
same,IC50,[2],700 nM
same,IC50,[3],130 nM
same,IC50,[4],400 nM
CN(c1ccccc1)c1ccc2c(c1)CCC[C@H]2CNc1cnccc1C(=O)O,IC50,[5],35 nM
same,IC50,[6],35 nM
same,IC50,[7],35 nM
Clc1ccc(N/N=C(\c2ccccc2)c2ccccn2)nc1,IC50,[8],290 nM
same,IC50,[9],290 nM
O=C(O)c1ccnc(-c2ccc[nH]2)c1,Ki,[10],31 nM
CC(/C=C/C(=O)NO)=C\[C@@H](C)C(=O)c1ccc(N(C)C)cc1 [TRICHOSTATIN],IC50,[11],28400 nM
CCCCc1oc2ccccc2c1C(=O)c1cc(I)c(OCC[N+](C)(C)C)c(I)c1,IC50,[12],26000 nM
COC(=O)/C=C/C(=O)N(O)CCCCNCc1ccc(COC(=O)Nc2cccc3ccccc23)cc1,EC50,[13],6300 nM
same,GI50,KYSE-150 cell line,5100 nM
same,EC50,[14],8600 nM
C=CCNC1=C2C[C@@H](C)C[C@H](OC)[C@H](O)[C@@H](C)/C=C(\C)[C@H](OC(N)=O)[C@@H](OC)/C=C\C=C(/C)C(=O)NC(=CC1=O)C2=O (stereo in doubt) [TANESPIMYCIN],IC50,[2],700 nM
same,IC50,[3],130 nM
same,IC50,[4],400 nM
CC(C)C(=O)NC(c1ccco1)c1ccc2cccnc2c1O (stereo unspecified),IC50,[15],30000 nM
O=C(O)c1ccncc1NCc1ccco1,chromatographic logD,[16],0.1
CCCCc1oc2ccccc2c1C(=O)c1cc(I)c(OCCN)c(I)c1,IC50,[12],26000 nM
O=C(O)/C=C/C(=O)N(O)CCCCNCc1ccc(COC(=O)Nc2cccc3ccccc23)cc1,IC50,[17],4300 nM
O=c1[nH]c(Oc2cnn(Cc3ccccc3)c2)nc2cnccc12,chromatographic logD,[16],1.8
Cc1cc(C2CCCCC2)n(O)c(=O)c1 [CICLOPIROX],IC50,[18],3800 nM
same,IC50,[19],200 nM
CNc1cnccc1C(=O)O,IC50,[20],1400 nM

# Reference: ChEMBL document CHEMBL5137065, “Recent Advances with KDM4 Inhibitors and Potential Applications” (J Med Chem, 2022)
